This is an account of results in article PMC10784249 (Natural Products and Bioprospecting, 2024).

Data set [1] can be described thus: PAMPA-BBB parallel artificial membrane permeability assay. It counts as in vitro ADME, porcine. The settings on record: pig, pH 7.4, PBS:EtOH (70:30) as solvent, mean ± SD of 2 independent experiments, 2 h 30 min at 25 °C, read-out: Pe. The procedure: Filter PDVF membrane units (diameter 30 mm, pore size 0.45 μm) from Symta were used to filter the samples. A 96-well plate UV reader (Thermoscientific, Multiskan spectrum) was used for the UV measurements. […] These solutions were filtered. […] Then the donor plate was carefully put on the acceptor plate to form a “sandwich”, which was left undisturbed for 2 h and 30 min at 25 °C. […] During this time the compounds diffused from the donor plate through the brain lipid membrane into the acceptor plate. After incubation, the donor plate was removed. UV plate reader determined the concentration of compounds and commercial drugs in the acceptor and the donor wells. […] 10 quality control compounds (previously mentioned) of known BBB permeability were included in each experiment to validate the analysis set.
A general note: The PAMPA barrier holds no transporters, so it reflects passive diffusion.

The subject of the next data set is SH-SY5Y cells. The data set can be described thus: Cell viability of SH-SY5Y cells by MTT (toxicity check). The note with it: undifferentiated SH-SY5Y, 70 µM of OA, 24 h.

On to `CN(C)CCCN1c2ccccc2Sc2ccccc21` [Promazine], for which the Papp at […] in data set [1] was found to be 12 ± 0.9 ×10⁻⁶ cm/s.

In the case of `CN1C(C(=O)Nc2ccccn2)=C(O)c2ccccc2S1(=O)=O` [Piroxicam], the Papp at […] in data set [1] amounted to 0.6 ± 0.8 ×10⁻⁶ cm/s.

As to `C=C1[C@@H](O)[C@@H]2O[C@]3(CC[C@H](/C=C/[C@@H](C)[C@@H]4CC(C)=C[C@@]5(O[C@H](C[C@@](C)(O)C(=O)O)CC[C@H]5O)O4)O3)CC[C@H]2O[C@@H]1[C@@H](O)C[C@H](C)[C@H]1O[C@@]2(CCCCO2)CC[C@H]1C` [OA, okadaic acid], the “decrease of cell viability” value in the data set with SH-SY5Y cells is listed as “about 43%”.
